In US4874526A, “Treatment of water” (Ciba-Geigy Corporation, priority 1981, dated 1989):
Read-outs that look alike come from different tables or passages of the source.

How the values were obtained:
[1] = system: mixed culture of bacteria; experiment: Minimum concentration required to kill a given number of organisms (MKC), mixed culture of slime-forming bacteria, 5 hours exposure; type: cell-based
Protocol: The effect of the number of organisms present on the biological activity of tri-n-butyl tetradecyl phosphonium chloride was compared with that for various quaternary ammonium compounds. This was done by measuring the MKC value i.e. the minimum concentration (expressed in ppm active ingredient) of chemical required to kill a given number or organisms. In the test carried out, a suspension of a mixed culture of bacteria containing the following slime-forming organisms:
Proteus vulgaris was diluted to give suspensions containing 10^6 /ml (A), 10^5 /ml (B) and 10^4 /ml (C) bacteria. These suspensions were then exposed to varying concentrations of the biocides for 5 hours and the MKC value measured.

[2] = Standard Ross-Miles foam test; type: physicochemical; settings: 0.05%; for foam production: compared with S or 22
[3] = Surface tension of dilute aqueous solutions (Example 2); type: physicochemical; settings: FIG. 8, in comparison with 22
Protocol: The surface activity of the following compounds was measured by determining the surface tension of dilute aqueous solutions of the chemicals: […]

Haematococcus lacustris = experiment: Algal growth inhibition (MIC), strain C (Example 7); type: cell-based
Protocol: (§1) The algae was diluted (1 to 200) in further algae medium and the phosphonium compounds added to give final concentrations of 1, 2.5, 3.4 and 6.8 ppm active ingredient. The algal suspensions were then incubated in a shaking water bath at 18° C., with a daily cycle of 14 hours light and 10 hours darkness. The suspensions were assessed visually for growth of algae and the Minimum Inhibition Concentration (MIC) was recorded as the lowest concentration of product at which there was no growth for each algal strain. A similar experiment was also carried out using a mixed algal culture including strains a to d together with the following strains:
The activity of the phosphonium compounds listed below against three strains of algae is determined according to the procedure set out in example 5. The three strains of algae are:
Haematococcus lacustris (C)

Tribonema aequale = experiment: Algal growth inhibition (MIC), strain B (Example 7); type: cell-based
Protocol: as §1
(§2) The activity of the phosphonium compounds listed below against three strains of algae is determined according to the procedure set out in example 5.

Scenedesmus obliquus = experiment: Algal growth inhibition (MIC), strain A (Example 7); type: cell-based; settings: Tetradesmus obliquus
Protocol: as §1, §2

[4] = Reduction of the surface tension of water (Example 6); type: physicochemical; settings: distilled water 72.8 dynes/cm
Protocol: The effect of respective test compounds on the surface tension of water was also determined, the results being shown in the following Table:
Reduction of the surface tension.

Scenedesmus spec. = experiment: Algal growth inhibition (MIC), strain d (Example 5); type: cell-based
Protocol: (§3) Cultures of the following strains of algae were grown in algae nutrient medium over a period of 14 days:
as §1, with “strains: […]” for “strains:”

Phormidium foveolarum = experiment: Algal growth inhibition (MIC), strain b (Example 5); type: cell-based; settings: Nodosilinea foveolarum
Protocol: as §3
(b) Phormidium foveolarum
as §1, with “strains: […]” for “strains:”

germs = experiment: Survival rate of germs in circulation systems with cooling tower; settings: 3 h, 20 ppm active ingredient, read-out: Survival rate of germs 3h after biocide addition
Protocol: The compounds below were tested in circulation systems, set up on a roof, and consisting of the following:
1. A plastic barrel having a volume of 113 liters.
2. A Siemens pump (21 liters/minute delivery at a delivery hight of 3 meters).
3. A cooling tower with Oreogn pine heartwood, oak, spruce, asbestos cement and PVC panels.
120-124 liters of make-up water were added daily to achieve a half-life in the system of about one day.
The systems were inoculated naturally with airborne dust, spores and pollen.
The systems were treated with compound to be tested on the first day then on day 7, day 21 and over 45 days. The number of germs/ml of water in the system is measured before and 3 hours after addition of the compound being tested.
The germ count was carried out by standard serial dilution and plating out on Agar nutrient and, afer incubation, counting the bacterial colonies present on the surface.
In each case the dosage of compound added was 20 ppm active ingredient.

Chlorella vulgaris = experiment: Algal growth inhibition (MIC), strain c (Example 5); type: cell-based
Protocol: as §3
as §1, with “strains: […]” for “strains:”

mixed algal culture = experiment: Algal growth inhibition (MIC), mixed algal culture (Example 5); type: cell-based
Protocol: as §1
In this experiment the concentrations of phosphonium compounds present were 2, 5, 7.5 and 10 ppm.

Oscillatoria geminata = experiment: Algal growth inhibition (MIC), strain a (Example 5); type: cell-based; settings: Jaaginema geminatum
Protocol: as §3
(a) Oscillatoria geminata
as §1, with “strains: […]” for “strains:”

[5] = Foaming in the cooling system (Example 6); type: physicochemical
algae = experiment: Anti-algal effect, algae in general; type: cell-based; settings: compared with triphenyl-dodecyl phosphonium chloride
Excerpt: The anti-algal effect of the respective test compounds was also examined. […] Thus, the compound of the invention when used in an amount of 1 ppm inhibited the algal strains chlorella vulgaris snd scenedesmus spec. (which strains are very significant strains in cooling systems) where 2, 5 or 10 ppm was required when using triphenyl-dodecyl phosphonium chloride.

[6] = read-out: MKC, A: 10^6/ml bacteria, ppm active ingredient
[7] = read-out: MKC, B: 10^5/ml bacteria, ppm active ingredient
[8] = read-out: MKC, C: 10^4/ml bacteria, ppm active ingredient

Row | Compound | MBC [1, 6] [µg/mL] | MBC [1, 7] [µg/mL] | MBC [1, 8] [µg/mL] | Foam Height ([2]; 1 minute) [mm] | Foam Height ([2]; 30 minutes) [mm] | Foam Height ([2]; 60 minutes) [mm] | surface activity [3] | MIC (Haematococcus lacustris; strain C, read-out: MIC) [µg/mL] | foam production [2] | MIC (Tribonema aequale; strain B, read-out: MIC) [µg/mL] | MIC (Scenedesmus obliquus; strain A, read-out: MIC) [µg/mL] | Surface tension ([4]; 5 mg/l) [dynes/cm] | Surface tension ([4]; 10 mg/l) [dynes/cm] | Surface tension ([4]; 15 mg/l) [dynes/cm] | Surface tension ([4]; 20 mg/l) [dynes/cm] | Surface tension ([4]; 30 mg/l) [dynes/cm] | viability at 20 ppm (germs; 0 d) [%] | viability at 20 ppm (germs; 7 d) [%] | viability at 20 ppm (germs; 21 d) [%] | viability at 20 ppm (germs; >45 d) [%] | also measured
1 | CCCCCCCCCC[N+](C)(C)CCCCCCCCCC.[Cl-] [Dimethyl di-n-decyl ammonium chloride, dimethyl di-n-decyl ammonium chloride, reference compound] | 25 | 25 | 12.5 | 45 | 40 | 38 |  |  |  |  |  |  |  |  |  |  |  |  |  |  | 
2 | CCCCCCCCCCCC[P+](CCCC)(CCCC)CCCC.[Cl-] [Tri-n-butyl dodecyl phosphonium chloride, tri-n-butyl dodecyl phosphonium chloride] |  |  |  | 18 | 6 | 4 | high surface activity | 1 | much less foam than S or 22 | 1 | 2 |  |  |  |  |  |  |  |  |  | 
3 | CCCCCCCCCCCC[P+](c1ccccc1)(c1ccccc1)c1ccccc1.[Cl-] [Triphenyl dodecyl phosphonium chloride, triphenyl dodecyl phosphonium chloride, reference compound] |  |  |  |  |  |  |  |  |  |  |  | 60.2 | 59.5 | 57.9 | 56.4 | 53.7 | 3 | 72 | 110 | 130 | MIC (Scenedesmus spec.): 3.4 µg/mL; MIC (Phormidium foveolarum): 1 µg/mL; MIC (Haematococcus lacustris): 3 µg/mL; MIC (Chlorella vulgaris): 2.5 µg/mL; MIC (mixed algal culture): 7.5 µg/mL; MIC (Oscillatoria geminata): 2.5 µg/mL; foaming in the cooling system [5]: some foaming problems were encountered; MIC (Tribonema aequale): 3 µg/mL; MIC (Scenedesmus obliquus): 3 µg/mL
4 | CCCCCCCCCCCCCC[P+](c1ccccc1)(c1ccccc1)c1ccccc1.[Br-] [Triphenyl tetradecyl phosphonium bromide, reference compound] |  |  |  |  |  |  |  | 6 |  | 3 | 6 |  |  |  |  |  |  |  |  |  | 
5 | CCCCCCCCCCCCCC[P+](CCCC)(CCCC)CCCC.[Br-] [tri-n-butyl tetradecyl phosphonium bromide] |  |  |  |  |  |  |  | 2 |  | 0.3 | 2 |  |  |  |  |  |  |  |  |  | MIC (Scenedesmus spec.; strain d, 18° C., ppm active ingredient, read-out: MIC): 1 µg/mL; MIC (Phormidium foveolarum; strain b, 18° C., ppm active ingredient, read-out: MIC): 1 µg/mL; MIC (Chlorella vulgaris; strain c, 18° C., ppm active ingredient, read-out: MIC): 1 µg/mL; MIC (mixed algal culture; mixed culture, concentrations 2, 5, 7.5 and 10 ppm, read-out: MIC): 2 µg/mL; MIC (Oscillatoria geminata; strain a, 18° C., ppm active ingredient, read-out: MIC): 2.5 µg/mL
6 | CCCCCCCCCCCCCC[P+](CCCC)(CCCC)CCCC.[Cl-] [tri-n-butyl tetradecyl phosphonium chloride] | 12.5 | 12.5 | 12.5 | 33 | 19 | 10 | high surface activity |  | much less foam than S or 22 |  |  | 52.9 | 48.8 | 47.1 | 45.6 | 42.3 | 1 | 9 | 6 | 8 | activity against algae (algae): more active against algae than triphenyl-dodecyl phosphonium chloride; MIC (mixed algal culture): 5 µg/mL; MIC (Tribonema aequale): 2 µg/mL
